Measurements from patent US8877741B2, “Pyrrolidine derivatives, pharmaceutical compositions and uses thereof” (Boehringer Ingelheim International GmbH, priority 2013, dated 2014).
pIC50: −log10 of the molar value.

The compounds below were run against human ACC2 (Homo sapiens (Human), UniProt O00763) (assay: ACC2 assay, spectrophotometric 384 well assay (NADH-linked kinetic method)). Conditions: human ACC2 construct lacking the 128 N-terminal amino acids; coupled lactate dehydrogenase/pyruvate kinase reaction, 340 nm, 25° C.
human ACC2, sequence (O00763 129-2458): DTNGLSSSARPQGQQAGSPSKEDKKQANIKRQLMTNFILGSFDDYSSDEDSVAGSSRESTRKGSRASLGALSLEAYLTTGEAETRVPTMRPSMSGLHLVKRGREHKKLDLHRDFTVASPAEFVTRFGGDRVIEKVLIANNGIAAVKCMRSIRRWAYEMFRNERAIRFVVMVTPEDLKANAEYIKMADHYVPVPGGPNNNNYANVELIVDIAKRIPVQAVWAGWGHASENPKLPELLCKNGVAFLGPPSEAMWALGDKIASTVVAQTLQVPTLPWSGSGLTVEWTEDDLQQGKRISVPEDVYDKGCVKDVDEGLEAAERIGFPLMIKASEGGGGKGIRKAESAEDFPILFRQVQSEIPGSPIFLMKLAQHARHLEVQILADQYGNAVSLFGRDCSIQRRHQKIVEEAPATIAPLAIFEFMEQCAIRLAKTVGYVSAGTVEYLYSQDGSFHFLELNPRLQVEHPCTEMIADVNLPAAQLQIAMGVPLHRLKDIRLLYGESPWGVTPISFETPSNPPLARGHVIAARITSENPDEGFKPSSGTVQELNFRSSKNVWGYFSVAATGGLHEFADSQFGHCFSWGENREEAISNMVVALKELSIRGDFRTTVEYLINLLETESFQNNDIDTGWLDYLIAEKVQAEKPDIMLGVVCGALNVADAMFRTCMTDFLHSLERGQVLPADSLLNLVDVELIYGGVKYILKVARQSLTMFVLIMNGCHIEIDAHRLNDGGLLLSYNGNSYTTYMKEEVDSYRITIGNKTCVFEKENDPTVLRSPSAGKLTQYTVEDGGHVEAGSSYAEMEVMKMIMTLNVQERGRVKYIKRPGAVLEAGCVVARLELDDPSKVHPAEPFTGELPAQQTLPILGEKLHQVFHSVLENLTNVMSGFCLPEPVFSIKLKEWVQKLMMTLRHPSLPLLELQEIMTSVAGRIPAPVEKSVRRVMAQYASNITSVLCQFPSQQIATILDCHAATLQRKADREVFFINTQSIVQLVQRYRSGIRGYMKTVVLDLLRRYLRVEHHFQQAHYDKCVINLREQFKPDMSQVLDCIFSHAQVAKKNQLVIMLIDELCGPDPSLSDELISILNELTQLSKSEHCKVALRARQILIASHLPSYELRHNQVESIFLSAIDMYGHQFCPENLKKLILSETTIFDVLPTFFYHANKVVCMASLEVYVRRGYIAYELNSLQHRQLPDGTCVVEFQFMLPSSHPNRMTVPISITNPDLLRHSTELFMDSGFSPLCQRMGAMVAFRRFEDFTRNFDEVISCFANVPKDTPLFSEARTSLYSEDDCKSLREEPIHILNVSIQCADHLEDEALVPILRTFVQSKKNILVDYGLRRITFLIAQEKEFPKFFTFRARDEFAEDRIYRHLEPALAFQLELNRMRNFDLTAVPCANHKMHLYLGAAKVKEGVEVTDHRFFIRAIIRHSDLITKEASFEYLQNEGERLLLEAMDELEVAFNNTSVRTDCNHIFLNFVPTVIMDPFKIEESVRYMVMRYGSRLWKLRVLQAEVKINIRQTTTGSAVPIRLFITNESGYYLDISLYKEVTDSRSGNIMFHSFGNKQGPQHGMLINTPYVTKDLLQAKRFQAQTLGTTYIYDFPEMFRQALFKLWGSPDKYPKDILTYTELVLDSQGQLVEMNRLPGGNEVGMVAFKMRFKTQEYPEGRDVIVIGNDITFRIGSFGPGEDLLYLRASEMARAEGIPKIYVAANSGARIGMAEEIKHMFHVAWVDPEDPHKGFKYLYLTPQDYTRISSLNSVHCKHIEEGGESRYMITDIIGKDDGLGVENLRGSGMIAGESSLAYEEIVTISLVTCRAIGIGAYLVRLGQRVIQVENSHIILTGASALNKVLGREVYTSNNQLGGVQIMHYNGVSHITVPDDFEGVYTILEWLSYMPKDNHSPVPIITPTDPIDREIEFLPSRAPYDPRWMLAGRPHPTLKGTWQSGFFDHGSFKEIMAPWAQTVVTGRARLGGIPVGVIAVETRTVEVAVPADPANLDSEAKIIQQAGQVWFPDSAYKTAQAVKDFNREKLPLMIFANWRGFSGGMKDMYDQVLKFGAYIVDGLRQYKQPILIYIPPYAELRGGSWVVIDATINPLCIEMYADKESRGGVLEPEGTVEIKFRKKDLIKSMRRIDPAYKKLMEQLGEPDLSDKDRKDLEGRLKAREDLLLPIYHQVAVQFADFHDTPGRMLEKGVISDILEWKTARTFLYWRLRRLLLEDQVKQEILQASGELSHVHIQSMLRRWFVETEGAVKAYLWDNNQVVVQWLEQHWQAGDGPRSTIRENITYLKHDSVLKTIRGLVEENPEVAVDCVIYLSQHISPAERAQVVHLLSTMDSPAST
Format: biochemical
Method in brief: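 N-terminally truncated human ACC2 (lacking 128 residues), expressed in insect cells, was coupled to pyruvate kinase/lactate dehydrogenase, with NADH and acetyl-CoA at 2000 μM and ATP at 500 μM final. The OD340 decrease was followed over 15 min at 25 °C. Slopes were normalised to vehicle and no-acetyl-CoA controls, and IC50 came from four-parameter regression.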

pIC50 | SMILES
7.12 | CC(=O)N[C@@H](C)c1ccc(O[C@@H]2CCN(c3ccnc(OCCC4CC4)c3)C2)cc1 [Example 9.14]
7.40 | CC(=O)N[C@@H](C)c1ccc(O[C@@H]2CCN(c3ccnc(OCC4CCC4)c3)C2)cc1 [Example 9.15]
7.11 | C=C(C)COc1cc(N2CC[C@@H](Oc3ccc([C@H](C)NC(C)=O)cc3)C2)ccn1 [Example 9.17]
6.32 | CC(=O)N[C@@H](C)c1ccc(O[C@@H]2CCN(c3ccnc(OCc4cccc(F)c4)c3)C2)cc1 [Example 9.21]
6.85 | CC(=O)N[C@@H](C)c1ccc(O[C@@H]2CCN(c3ccnc(OC4CCOCC4)c3)C2)cc1 [Example 9.22]
7.35 | CC(=O)N[C@@H](C)c1ccc(O[C@@H]2CCN(c3ccnc(OCC4CC4C)c3)C2)cc1 (stereo partly drawn) [Example 9.23]
6.24 | CC(=O)N[C@@H](C)c1ccc(O[C@@H]2CCN(c3ccnc(O[C@H]4CCOC4)c3)C2)cc1 [Example 9.25]
6.90 | CC(=O)N[C@@H](C)c1ccc(O[C@@H]2CCN(c3ccnc(OCC4CCOC4)c3)C2)cc1 (stereo partly drawn) [Example 9.26]
7.26 | CC[C@H](C)Oc1cc(N2CC[C@@H](Oc3ccc([C@H](C)NC(C)=O)cc3)C2)ccn1 [Example 9.27]
7.40 | CC(=O)N[C@@H](C)c1ccc(O[C@@H]2CCN(c3ccnc(OC4CCCC4)c3)C2)cc1 [Example 9.28]
7.52 | CC(=O)N[C@@H](C)c1ccc(O[C@@H]2CCN(c3ccnc(OCC(C)(C)C)c3)C2)cc1 [Example 9.29]
6.40 | CC(=O)N[C@@H](C)c1ccc(O[C@@H]2CCN(c3ccnc(OCc4cccnc4)c3)C2)cc1 [Example 9.30]
6.27 | CC(=O)N[C@@H](C)c1ccc(O[C@@H]2CCN(c3ccnc(OCc4ccccn4)c3)C2)cc1 [Example 9.33]
6.83 | C[C@H](NC(=O)C1CC1)c1ccc(O[C@@H]2CCN(c3ccnc(OCC4CC4)c3)C2)cc1 [Example 9.39]
6.49 | C[C@H](NC(=O)C1CC1)c1ccc(O[C@@H]2CCN(c3ccnc(OCC4CC4(F)F)c3)C2)cc1 (stereo partly drawn) [Example 9.40]
6.40 | C[C@H](NC(=O)C1CC1)c1ccc(O[C@@H]2CCN(c3ccnc(OCC(F)F)c3)C2)cc1 [Example 9.42]
6.74 | C[C@H](NC(=O)C1CC1)c1ccc(O[C@@H]2CCN(c3ccnc(O[C@@H]4CCOC4)c3)C2)cc1 [Example 9.43]
6.19 | CO[C@@H](C)COc1cc(N2CC[C@@H](Oc3ccc([C@H](C)NC(C)=O)cc3)C2)ccn1 [Example 9.44]
6.30 | CC(=O)N[C@@H](C)c1ccc(O[C@@H]2CCN(c3ccnc(O[C@@H]4CCC[C@@H]4O)c3)C2)cc1 [Example 9.45]
6.26 | CCC(COC)Oc1cc(N2CC[C@@H](Oc3ccc([C@H](C)NC(C)=O)cc3)C2)ccn1 (stereo partly drawn) [Example 9.46]

pIC50 | SMILES
7.38 | CC(=O)N[C@@H](C)c1ccc(O[C@@H]2CCN(c3ccnc(OCC4CC4)c3F)C2)cc1 [Example 9.51]
7.40 | CCCOc1nccc(N2CC[C@@H](Oc3ccc([C@H](C)NC(C)=O)cc3)C2)c1F [Example 9.53]
7.23 | CCCOc1nccc(N2CC[C@@H](Oc3ccc([C@H](C)NC(C)=O)cc3)C2)c1C [Example 9.55]
6.05 | CC(=O)N[C@@H](C)c1ccc(O[C@@H]2CCN(c3cc(OCC(C)C)ncc3C#N)C2)cc1 [Example 9.56]
7.26 | CC(=O)N[C@@H](C)c1ccc(O[C@@H]2CCN(c3ccnc(OCC4CC4)c3C)C2)cc1 [Example 9.57]
6.63 | Cc1c(N2CC[C@@H](Oc3ccc([C@H](C)NC(=O)/C=C/C4CC4)cc3)C2)ccnc1OCC1CC1 [Example 9.59]
7.19 | CC(=O)N[C@@H](C)c1ccc(O[C@@H]2CCN(c3ccnc(OCC4CC(F)(F)C4)c3)C2)cc1 [Example 9.61]
7.26 | C[C@H](NC(=O)c1cncs1)c1ccc(O[C@@H]2CCN(c3ccnc(OCC4CC4)c3)C2)cc1 [Example 9.63]
7.07 | C[C@H](NC(=O)c1cncs1)c1ccc(O[C@@H]2CCN(c3ccnc(OC4CCOC4)c3)C2)cc1 (stereo partly drawn) [Example 9.65]
6.84 | CC(=O)N[C@@H](C)c1ccc(O[C@@H]2CCN(c3nccc(OCC4CC4)c3F)C2)cc1 [Example 9.67]
6.60 | CCCOc1ccnc(N2CC[C@@H](Oc3ccc([C@H](C)NC(C)=O)cc3)C2)c1F [Example 9.68]
6.91 | CC(=O)N[C@@H](C)c1ccc(O[C@@H]2CCN(c3cc(OCC(F)F)ncc3F)C2)cc1 [Example 9.70]
7.35 | CC(=O)N[C@@H](C)c1ccc(O[C@@H]2CCN(c3ccnc(OCC4CC4(F)F)c3Cl)C2)cc1 (stereo partly drawn) [Example 9.71]
7.10 | CC(=O)N[C@@H](C)c1ccc(O[C@@H]2CCN(c3ccnc(OCC(F)F)c3Cl)C2)cc1 [Example 9.72]
6.06 | CC(=O)N[C@@H](C)c1ccc(O[C@@H]2CCN(c3ccnc(OCCO)c3F)C2)cc1 [Example 9.75]
6.94 | CCOc1nccc(N2CC[C@@H](Oc3ccc([C@H](C)NC(C)=O)cc3)C2)c1Cl [Example 9.76]
7.23 | CC(=O)N[C@@H](C)c1ccc(O[C@@H]2CCN(c3ccnc(OCC(C)(F)F)c3Cl)C2)cc1 [Example 9.77]
6.88 | COC(C)(C)COc1nccc(N2CC[C@@H](Oc3ccc([C@H](C)NC(C)=O)cc3)C2)c1Cl [Example 9.79]
7.46 | CC(=O)N[C@@H](C)c1ccc(O[C@@H]2CCN(c3ccnc(OCC4CC4)c3Cl)C2)cc1 [Example 9.82]
7.10 | CC(=O)N[C@@H](C)c1ccc(O[C@@H]2CCN(c3ccnc(OC(C)C)c3F)C2)cc1 [Example 9.83]

Continued, compound first:

SMILES | pIC50
CC(=O)N[C@@H](C)c1ccc(O[C@@H]2CCN(c3ccnc(OC4Cc5ccccc5C4)c3)C2)cc1 [Example 9.13] | 6.64
CC(=O)N[C@@H](C)c1ccc(O[C@@H]2CCN(c3ccnc(OCC4(C)CC4)c3)C2)cc1 [Example 9.16] | 7.46
COCCOc1cc(N2CC[C@@H](Oc3ccc([C@H](C)NC(C)=O)cc3)C2)ccn1 [Example 9.18] | 6.32
CC(=O)N[C@@H](C)c1ccc(O[C@@H]2CCN(c3ccnc(OC(C)c4ccccc4)c3)C2)cc1 (stereo partly drawn) [Example 9.19] | 6.48
CCC(CC)Oc1cc(N2CC[C@@H](Oc3ccc([C@H](C)NC(C)=O)cc3)C2)ccn1 [Example 9.20] | 7.15
CC(=O)N[C@@H](C)c1ccc(O[C@@H]2CCN(c3ccnc(OCC4CC4C#N)c3)C2)cc1 (stereo partly drawn) [Example 9.24] | 7.26
CC(=O)N[C@@H](C)c1ccc(O[C@@H]2CCN(c3ccnc(OCC(F)F)c3)C2)cc1 [Example 9.31] | 7.05
CC(=O)N[C@@H](C)c1ccc(O[C@@H]2CCN(c3ccnc(OCC(C)(C)O)c3)C2)cc1 [Example 9.32] | 6.52
CC(=O)N[C@@H](C)c1ccc(O[C@@H]2CCN(c3ccnc(OCCC(C)C)c3)C2)cc1 [Example 9.34] | 7.02
CC(=O)N[C@@H](C)c1ccc(O[C@@H]2CCN(c3ccnc(OCc4ccncc4)c3)C2)cc1 [Example 9.35] | 6.23
CC(C)COc1cc(N2CC[C@@H](Oc3ccc([C@H](C)NC(=O)C4CC4)cc3)C2)ccn1 [Example 9.36] | 6.68
CCCOc1cc(N2CC[C@@H](Oc3ccc([C@H](C)NC(=O)C4CC4)cc3)C2)ccn1 [Example 9.37] | 6.41
CCOc1cc(N2CC[C@@H](Oc3ccc([C@H](C)NC(=O)C4CC4)cc3)C2)ccn1 [Example 9.38] | 6.29
C[C@H](NC(=O)C1CC1)c1ccc(O[C@@H]2CCN(c3ccnc(OC4CCC4)c3)C2)cc1 [Example 9.41] | 7.02
CC(=O)N[C@@H](C)c1ccc(O[C@@H]2CCN(c3ccnc(O[C@@H]4CCC[C@H]4O)c3)C2)cc1 [Example 9.47] | 6.13
CC(=O)N[C@@H](C)c1ccc(O[C@@H]2CCN(c3ccnc(OCC4CCCO4)c3)C2)cc1 (stereo partly drawn) [Example 9.48] | 6.31

SMILES | pIC50
CC(=O)N[C@@H](C)c1ccc(O[C@@H]2CCN(c3ccnc(OCC4CCCO4)c3)C2)cc1 (stereo partly drawn) [Example 9.49] | 6.18
CC(=O)N[C@@H](C)c1ccc(O[C@@H]2CCN(c3ccnc(OCC(C)C)c3F)C2)cc1 [Example 9.50] | 6.96
CC(=O)N[C@@H](C)c1ccc(O[C@@H]2CCN(c3ccnc(OCC(F)F)c3F)C2)cc1 [Example 9.52] | 7.21
CC(=O)N[C@@H](C)c1ccc(O[C@@H]2CCN(c3ccnc(OCC(F)F)c3C)C2)cc1 [Example 9.54] | 6.94
CC(=O)N[C@@H](C)c1ccc(O[C@@H]2CCN(c3ccnc(OCC(C)C)c3C)C2)cc1 [Example 9.58] | 7.26
CC(=O)N[C@@H](C)c1ccc(O[C@@H]2CCN(c3ccnc(OCC4CC4(F)F)c3C)C2)cc1 (stereo partly drawn) [Example 9.60] | 7.40
CC(=O)N[C@@H](C)c1ccc(O[C@@H]2CCN(c3ccnc(OCC4CC4(F)F)c3F)C2)cc1 (stereo partly drawn) [Example 9.62] | 7.36
CCCOc1cc(N2CC[C@@H](Oc3ccc([C@H](C)NC(=O)c4cncs4)cc3)C2)ccn1 [Example 9.64] | 7.46
CC(=O)N[C@@H](C)c1ccc(O[C@@H]2CCN(c3ccnc(OCC(F)F)c3OCC(F)F)C2)cc1 [Example 9.66] | 6.21
CCOc1ccnc(N2CC[C@@H](Oc3ccc([C@H](C)NC(C)=O)cc3)C2)c1F [Example 9.69] | 6.22
CCC(=O)Nc1nc(C)c(C(=O)N[C@@H](C)c2ccc(O[C@@H]3CCN(c4ccnc(OCC5CC5)c4Cl)C3)cc2)s1 [Example 9.73] | 7.35
CC(=O)N[C@@H](C)c1ccc(O[C@@H]2CCN(c3ccnc(OCC(C)O)c3F)C2)cc1 (stereo partly drawn) [Example 9.74] | 6.66
CCCOc1nccc(N2CC[C@@H](Oc3ccc([C@H](C)NC(C)=O)cc3)C2)c1Cl [Example 9.78] | 7.24
CC(=O)N[C@@H](C)c1ccc(O[C@@H]2CCN(c3ccnc(OC(C)C)c3Cl)C2)cc1 [Example 9.80] | 6.86
CC(=O)N[C@@H](C)c1ccc(O[C@@H]2CCN(c3ccnc(OC4CCCC4)c3Cl)C2)cc1 [Example 9.81] | 7.28
CC(=O)N[C@@H](C)c1ccc(O[C@@H]2CCN(c3ccnc(OC4CCCC4)c3F)C2)cc1 [Example 9.84] | 7.35
